Values quoted from earlier work in patent US6747006B2, “Use of GLP-1 or analogs in treatment of myocardial infarction” (Eli Lilly and Company, priority 1996, dated 2004).

System: diabetic patients during acute myocardial infarction
Settings: insulin and glucose infusion, then subcutaneous multidose insulin; compared with control group of diabetics without insulin treatment

Insulin: insulin given as control by continuous infusion or subcutaneous injection
lowering of mortality during the year following myocardial infarction: 30%
